Test results reported in US20250114369A1, “COMPOUNDS AND METHODS FOR TREATMENT OF VIRAL INFECTIONS” (Gilead Sciences, Inc., priority 2023, published 2025).

Experiments:
[1] = system: Respiratory syncytial virus recombinant with luciferase (RSV-Luc5); assay: microbe, parasite or virus in culture; format: cell-based; settings: human respiratory syncytial virus, NHBE, 72 h, read-out: RSV NHBE EC50 (nM)
in vitro [2] = format: in vitro ADME; settings: human, s9, pH 7.4
Protocol: Duplicate aliquots of test compound or positive control substrate (GS-7340) were added to PMSF-free Intestinal S9 fractions diluted with 100 mM phosphate buffered saline, pH 7.4, to obtain a protein concentration of 1.0 mg/mL. The S9 metabolic reactions were initiated by the addition of the substrates to the S9 reaction mixture to a final concentration of 2 μM. At 0, 10, 20, 30, 60 and 120 min, 25 μL aliquots of the reaction mixture were transferred to plates containing 225 μl of IS/Q solution. After quenching, the plates were centrifuged at 3000×g for 30 minutes, and 150 μL aliquots of each supernatant were diluted with 150 μL water. Aliquots (10 μL) of the diluted supernatant were analyzed on a Thermo Q-Exactive mass spectrometer as described below. Quantification of test compounds and controls was performed by analyte/internal standard peak area ratio (PAR) values measured on a Thermo Q-Exactive mass spectrometer coupled to a Dionex UltiMate 3000 HPLC with a Leap Technologies HTC PAL autosampler. The column used was a Thermo Hypersil GOLD (1.9 μm particle size, 2.1×50 mm). Mobile phase A consisted of […] formic acid in water. Mobile phase B consisted of 0.1% (v/v) formic acid in acetonitrile. Elution of analytes was achieved by a series of linear gradients of acetonitrile in water containing 0.1% (v/v) formic acid. The mass spectrometer was calibrated on a weekly basis and mass tolerance of 5 ppm was used.

in vitro [3] = format: cell-based; settings: human
Protocol: Cytotoxicity of the compounds was determined in uninfected cells using the cell viability reagent in a similar fashion as described before for other cell types (Cihlar et al., Antimicrob Agents Chemother. 2008, 52(2):655-65). HEp-2 (1.5×10^3 cells/well) and MT-4 (2×10^3 cells/well) cells were plated in 384-well plates and incubated with the appropriate medium containing 3-fold serially diluted compound ranging from 15 nM to 100,000 nM. Cells were cultured for 4-5 days at 37° C. Following the incubation, the cells were allowed to equilibrate to 25° C., and cell viability was determined by adding Cell-Titer Glo viability reagent. The mixture was incubated for 10 min, and the luminescence signal was quantified using an Envision plate reader. Untreated cell and cells treated at 2 μM puromycin (Sigma, St. Louis, MO) serve as […] cell viability control, respectively. The percent of cell viability was calculated for each tested compound concentration relative to the 0% and 100% controls and the CC50 value was determined by non-linear regression as a compound concentration reducing the cell viability by […].

in vitro [4] = format: in vitro ADME; settings: human, s9, pH 7.4; remark: listed apart in the source
Protocol: Duplicate aliquots of test compound or positive control substrate (GS-7340) were added to S9 stock diluted with 100 mM potassium phosphate buffer, pH 7.4, to obtain a protein concentration of 2.4 mg/mL. The S9 metabolic reactions were initiated by the addition of the substrates to the S9 reaction mixture to a final concentration of 2 μM. At 2, 12, 25, 45, 65 and 90 min, 25 μL aliquots of the reaction mixture were transferred to plates containing 225 μl of IS/Q solution. After quenching, the plates were centrifuged at 3000×g for 30 minutes, and 150 μL aliquots of each supernatant were diluted with 150 μL water. Aliquots (10 μL) of the diluted supernatant were analyzed on a Thermo Q-Exactive mass spectrometer as described below. Quantification of test compounds and controls was performed by analyte/internal standard peak area ratio (PAR) values measured on a Thermo Q-Exactive mass spectrometer coupled to a Dionex UltiMate 3000 HPLC with a Leap Technologies HTC PAL autosampler. The column used was a Thermo Hypersil GOLD (1.9 μm particle size, 2.1×50 mm). Mobile phase A consisted of […] formic acid in water. Mobile phase B consisted of 0.1% (v/v) formic acid in acetonitrile. Elution of analytes was achieved by a series of linear gradients of acetonitrile in water containing 0.1% (v/v) formic acid. The mass spectrometer was calibrated on a weekly basis and mass tolerance of 5 ppm was used.

[5] = system: Caco-2 cells (clone C2BBel); assay: CACO-2 permeability; format: in vitro ADME; settings: donor pH 6.5, receiver pH 7.4; for DM Caco2 A to B: forward (A to B); for DM Caco2 B to A: reverse (B to A)
Protocol: Pre-plated Caco-2 cells (clone C2BBel) were obtained from Sigma-Aldrich, Inc. (Atlanta, GA). Cell monolayers were grown to confluence on collagen-coated, microporous, polycarbonate membranes in 24-well transwell plates for 21 days. The permeability assay buffer in donor wells was Hanks' balanced salt solution (HBSS) containing 10 mM HEPES and 15 mM glucose at a pH of 6.5 containing 200 μM BNPP. The receiver wells used HBSS buffer containing 10 mM HEPES and 15 mM glucose at a pH of 7.4 and supplemented with 1% BSA. After an initial equilibration with transport buffer, TEER values were read to test membrane integrity. The experiment was started by the addition of buffers containing test compounds, 200 μl and 1000 μl in the apical and basolateral chamber, respectively. At 0- and 2-hour post dose, 10 μL was sampled from donor compartment and was immediately diluted in 190 μL of 20% methanol. At 1 and 2 hours post dose, 100 μl of solution was taken from the receiver compartments and was immediately diluted in 100 μl of 20% methanol. Removed buffer was replaced with fresh buffer and a correction was applied to all calculations for the removed material. Each compound was tested in 2 separate replicate wells for each condition. All samples were then extracted with 400 μl 100% acetonitrile with internal standard to precipitate protein. Cells were dosed on the apical or basolateral side to determine forward (A to B) and reverse (B to A) permeability. To test for non-specific binding and compound instability, the total amount of drug was quantitated at the end of the experiment and compared to the material present in the original dosing solution as a percent recovery. Formation of the parent compound (GS-441524; Reference Compound A) was monitored in assay wells dosed with the prodrug. Samples were analyzed by LC-MS/MS.

[6] = format: in vitro ADME; settings: 2 μM
Protocol: Duplicate aliquots of plasma were warmed to 37° C. and the metabolic reactions initiated by the addition of test compound (6 μL of 0.1 mM DMSO stock) or plasma stability standard (GS-7340) to obtain a final substrate concentration of 2 μM. At 0.05, 0.5, 1, 2, 3 and 4 hr, 25 μL aliquots of the reaction mixture were transferred to plates containing 225 μl of IS/Q quenching solution. After quenching, the plates were centrifuged at 3000×g for 30 minutes, and 150 μL supernatant was diluted with 150 μL water. Aliquots (10 μL) of the diluted supernatant were analyzed on a Thermo Q-Exactive mass spectrometer as described below. Quantification of test compounds and controls was performed by analyte/internal standard peak area ratio (PAR) values measured on a Thermo Q-Exactive mass spectrometer coupled to a Dionex UltiMate 3000 HPLC with a Leap Technologies HTC PAL autosampler. The column used was a Thermo Hypersil GOLD (1.9 μm particle size, 2.1×50 mm). Mobile phase A consisted of […] formic acid in water. Mobile phase B consisted of 0.1% (v/v) formic acid in acetonitrile. Elution of analytes was achieved by a series of linear gradients of acetonitrile in water containing 0.1% (v/v) formic acid. The mass spectrometer was calibrated on a weekly basis and mass tolerance of 5 ppm was used.

[7] = system: SARS Coronavirus 2 recombinant with NanoLuc (SARS-CoV2-NLuc); assay: organism not typed; format: cell-based; settings: 48 h
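For CC50 in this document: uninfected MT-4 cells over 4-5 days by CellTiter-Glo.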

Compound: CCOC(=O)c1cccn1C(=O)OC[C@H]1O[C@@](C#N)(c2ccc3c(N)ncnn23)[C@H](O)[C@@H]1O [Compound 10, O1-[[(2R,3S,4R,5R)-5-(4-aminopyrrolo[2,1-f][1,2,4]triazin-7-yl)-5-cyano-3,4-dihydroxy-tetrahydrofuran-2-yl]methyl]O2-ethyl pyrrole-1,2-dicarboxylate]
- EC50 [1]: 1520 nM
- half-life at 2 μM (in vitro [2]): 1.71 min
- CC50 (in vitro [3]): > 50 µM
- half-life at 2 μM (in vitro [4]): 4.6 min
- DM Caco2 A to B [5]: 0.22
- DM Caco2 B to A [5]: 5.54
- STA Human Plasma 37 [6]: 68.966
- EC50 [7]: 5.16 µM

Compound: CC(C)OC(=O)[C@@H](NC(=O)OC[C@H]1O[C@@](C#N)(c2ccc3c(N)ncnn23)[C@H](O)[C@@H]1O)C(C)C [Compound 7, isopropyl-((((2R,3S,4R,5R)-5-(4-aminopyrrolo[2,1-f][1,2,4]triazin-7-yl)-5-cyano-3,4-dihydroxytetrahydrofuran-2-yl)methoxy)carbonyl)-L-valinate]
- EC50 [1]: > 50000 nM
- half-life at 2 μM (in vitro [2]): ≥ 792 min
- CC50 (in vitro [3]): > 50 µM
- half-life at 2 μM (in vitro [4]): ≥ 592 min
- DM Caco2 A to B [5]: 0.115
- DM Caco2 B to A [5]: 6.245
- STA Human Plasma 37 [6]: 1303.4
- EC50 [7]: > 50 µM

Compound: COC(=O)[C@H]1COC(=O)N1C(=O)OC[C@H]1O[C@@](C#N)(c2ccc3c(N)ncnn23)[C@H](O)[C@@H]1O [Compound 5, O3-[[(2R,3S,4R,5R)-5-(4-aminopyrrolo[2,1-f][1,2,4]triazin-7-yl)-5-cyano-3,4-dihydroxy-tetrahydrofuran-2-yl]methyl]04-methyl (4R)-2-oxooxazolidine-3,4-dicarboxylate]
- EC50 [1]: 20100 nM
- half-life at 2 μM (in vitro [2]): 83.4 min
- CC50 (in vitro [3]): > 50 µM
- half-life at 2 μM (in vitro [4]): 256 min
- DM Caco2 A to B [5]: 0.04
- DM Caco2 B to A [5]: 0.08
- STA Human Plasma 37 [6]: 77.22
- EC50 [7]: 20.4 µM

Compound: CC(=O)O[C@H]1[C@@H](OC(C)=O)[C@](C#N)(c2ccc3c(N)ncnn23)O[C@@H]1COC(=O)SC1CCCC1 [Compound 25, [(2R,3R,4R,5R)-4-acetoxy-5-(4-aminopyrrolo[2,1-f][1,2,4]triazin-7-yl)-5-cyano-2-(cyclopentylsulfanylcarbonyloxymethyl)tetrahydrofuran-3-yl]acetate]
- EC50 [1]: 1250 nM
- half-life at 2 μM (in vitro [2]): 1.14 min
- CC50 (in vitro [3]): 32.5 µM
- half-life at 2 μM (in vitro [4]): ≤ 2 min
- STA Human Plasma 37 [6]: 72.169
- EC50 [7]: 4.02 µM

Compound: CCCSC(=O)OC[C@H]1O[C@@](C#N)(c2ccc3c(N)ncnn23)[C@H](OC(C)=O)[C@@H]1OC(C)=O [Compound 22, [(2R,3R,4R,5R)-4-acetoxy-5-(4-aminopyrrolo[2,1-f][1,2,4]triazin-7-yl)-5-cyano-2-(propylsulfanylcarbonyloxymethyl)tetrahydrofuran-3-yl]acetate]
- EC50 [1]: 3320 nM
- half-life at 2 μM (in vitro [2]): 1.59 min
- CC50 (in vitro [3]): > 50 µM
- half-life at 2 μM (in vitro [4]): ≤ 2 min
- EC50 [7]: 9.83 µM

Compound: CCSC(=O)OC[C@H]1O[C@@](C#N)(c2ccc3c(N)ncnn23)[C@H](OC(C)=O)[C@@H]1OC(C)=O [Compound 23, [(2R,3R,4R,5R)-4-acetoxy-5-(4-aminopyrrolo[2,1-f][1,2,4]triazin-7-yl)-5-cyano-2-(ethylsulfanylcarbonyloxymethyl)tetrahydrofuran-3-yl]acetate]
- EC50 [1]: 3810 nM
- half-life at 2 μM (in vitro [2]): 0.885 min
- CC50 (in vitro [3]): > 50 µM
- half-life at 2 μM (in vitro [4]): ≤ 2 min
- EC50 [7]: 12.4 µM

Compound: CC(=O)O[C@H]1[C@@H](OC(C)=O)[C@](C#N)(c2ccc3c(N)ncnn23)O[C@@H]1COC(=O)SC(C)(C)C [Compound 24, [(2R,3R,4R,5R)-4-acetoxy-5-(4-aminopyrrolo[2,1-f][1,2,4]triazin-7-yl)-2-(tert-butylsulfanylcarbonyloxymethyl)-5-cyano-tetrahydrofuran-3-yl]acetate]
- EC50 [1]: 19400 nM
- half-life at 2 μM (in vitro [2]): 0.921 min
- CC50 (in vitro [3]): > 50 µM
- half-life at 2 μM (in vitro [4]): ≤ 2 min
- EC50 [7]: > 50 µM
